Consider 5 compounds from article PMC9696309 (Metabolites, 2022).

Like-named read-outs stand apart in the source and are kept apart here.

The nature of data set [1]: in vitro. Conditions: African green monkey.
Data set [2] relates to SARS-CoV-2. The data set is described as follows: microbe, parasite or virus in culture. The class given is cell-based.
The test system of data set [3] is severe acute RS-CoV 3CL^pr°. Particulars: inhibition of severe acute RS-CoV 3CL^pr° activity; cited from earlier work.

Broadly, the IC50 is the midpoint of a concentration-inhibition curve.

Consider `COc1ccc(-c2coc3cc(O)ccc3c2=O)cc1` [Compound 3, formononetin], for which the CC50 in data set [1] was found to be 1720 µM.

For the compound `COc1c(O)cc2oc(-c3ccc(O)cc3)c(OC)c(=O)c2c1O` [Compound 7, 5,7,4’-trihydroxy-3,6-dimethoxy flavone], the CC50 in data set [1] was determined as 1070 µM. Besides, the IC50 in data set [2] and in data set [2] (Severe acute respiratory syndrome coronavirus 2) was 664 µM throughout.

Take `CC[C@H](CC[C@@H](C)[C@H]1CC[C@H]2[C@@H]3CC=C4C[C@@H](O[C@@H]5O[C@H](CO)[C@@H](O)[C@H](O)[C@H]5O)CC[C@]4(C)[C@H]3CC[C@]12C)C(C)C` [Compound 9, daucosterol]: the CC50 in data set [1] worked out at 2550 µM.

Take `O=c1cc(-c2ccc(O)cc2)oc2cc(O)cc(O)c12` [apigenin]: the IC50 in data set [3] is 281 µM.

Take `O=c1cc(-c2ccc(O)c(O)c2)oc2cc(O)cc(O)c12` [luteolin]: the IC50 in data set [3] was 20.2 µM.
